Laboratory results reported in patent US9315491B2 (DEVELOPMENT CENTER FOR BIOTECHNOLOGY, priority 2009, dated 2016).

What follows are compounds tested against recombinant mTOR (Homo sapiens (Human), UniProt P42345) (assay: mTOR kinase assay (33P incorporation into 4EBP1)). Conditions: compound at 10 μM, 10 μM ATP.
Sequence of recombinant mTOR (P42345 1360-2549): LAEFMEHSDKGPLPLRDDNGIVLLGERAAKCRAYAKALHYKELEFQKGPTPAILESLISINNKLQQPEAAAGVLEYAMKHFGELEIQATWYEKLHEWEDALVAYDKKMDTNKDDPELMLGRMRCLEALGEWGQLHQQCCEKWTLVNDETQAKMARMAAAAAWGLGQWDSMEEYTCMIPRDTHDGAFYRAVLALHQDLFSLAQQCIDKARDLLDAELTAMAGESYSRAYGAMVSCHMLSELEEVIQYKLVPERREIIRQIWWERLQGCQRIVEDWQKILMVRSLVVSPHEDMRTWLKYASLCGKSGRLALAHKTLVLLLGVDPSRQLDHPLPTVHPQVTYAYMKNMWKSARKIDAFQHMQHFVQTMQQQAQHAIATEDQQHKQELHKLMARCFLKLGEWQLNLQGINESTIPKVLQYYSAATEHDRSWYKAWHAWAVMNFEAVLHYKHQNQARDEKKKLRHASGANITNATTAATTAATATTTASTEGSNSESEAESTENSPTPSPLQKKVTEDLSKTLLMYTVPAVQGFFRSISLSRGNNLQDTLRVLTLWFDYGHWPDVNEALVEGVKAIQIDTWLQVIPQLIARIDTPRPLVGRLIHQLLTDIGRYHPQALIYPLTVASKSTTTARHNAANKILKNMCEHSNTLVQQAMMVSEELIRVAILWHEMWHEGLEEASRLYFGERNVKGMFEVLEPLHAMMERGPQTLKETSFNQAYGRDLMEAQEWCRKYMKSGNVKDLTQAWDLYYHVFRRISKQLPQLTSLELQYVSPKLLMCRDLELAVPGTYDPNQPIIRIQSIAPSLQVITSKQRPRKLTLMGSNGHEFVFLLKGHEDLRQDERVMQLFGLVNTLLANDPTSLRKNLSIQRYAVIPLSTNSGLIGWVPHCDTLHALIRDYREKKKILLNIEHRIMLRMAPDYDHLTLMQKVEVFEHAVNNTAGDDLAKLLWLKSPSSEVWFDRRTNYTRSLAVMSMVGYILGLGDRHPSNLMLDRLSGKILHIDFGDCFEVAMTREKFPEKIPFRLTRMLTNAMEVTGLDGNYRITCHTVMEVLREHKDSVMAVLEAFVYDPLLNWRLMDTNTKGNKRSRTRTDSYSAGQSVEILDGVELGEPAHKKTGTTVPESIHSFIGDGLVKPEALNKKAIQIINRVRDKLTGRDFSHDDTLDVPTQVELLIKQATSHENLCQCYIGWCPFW
Type: biochemical
Method: The activity of the compound against mTOR was examined by measuring the incorporation of ^33P from [γ-^33P]-ATP into 4EBP1. His-tagged, recombinant human 4EBP1 was expressed in E. coli, purified by nickel-nitrilotriacetic acid (Ni-NTA) resins, and stored at −80° C. Phosphorylation of 4EBP1 by mTOR was assayed in the presence or absence of the compound and performed in a final volume of 25 μl reaction buffer containing 300 ng 4EBP1, 50 ng recombinant mTOR (Invitrogen), 50 mM HEPES (pH 7.5), 1 mM EGTA, 0.01% Polysorbate 20, 10 mM MnCl2, 2.5 mM DTT, 10 μM ATP, and 0.5 μCi [γ-33P]-ATP (PerkinElmir) for 30 min at 30° C. The reactions were terminated by adding 3% phosphoric acid. The ^33P labeled 4EBP1 was transferred onto UniFilter-96 GF/B plate (PerkinElmer) and quantified by Top Count Microplate Scintillation Counter (PerkinElmer). For primary screening of kinase activity inhibition, each test compound was evaluated at […] in duplicate. […] The IC50 values of the compounds were determined after carrying out assays at eight serially diluted concentrations of each compound in duplicate. The results were analyzed using linear regression software (GraphPad Prism 5; GraphPad Software Inc.).
IC50 value is defined as the concentration of the test compound which achieves a half-maximal inhibition of the kinase activity.
Compound `CCOC(=O)c1nc(-c2ccc(Nc3nc4ccccc4[nH]3)cc2)nc(N2CCOCC2)c1OCC` [MTR-0243, 2-[4-(1H-Benzoimidazol-2-ylamino)-phenyl]-5-ethoxy-6-morpholin-4-yl-pyrimidine-4-carboxylic acid ethyl ester] has an inhibition at 10 µM of 92%.
For `CCOc1c(C(=O)O)nc(-c2ccc(NC(=O)Nc3cccnc3)cc2)nc1N1CCOCC1` [MTR-0245, 5-Ethoxy-6-morpholin-4-yl-2-[4-(3-pyridin-3-yl-ureido)-phenyl]-pyrimidine-4-carboxylic acid], the inhibition at 10 µM was 94%.
In the case of `CCOC(=O)c1nc(-c2ccc(NC(=O)Nc3cccc(NC(=O)C(F)(F)F)c3)cc2)nc(N2CCOCC2)c1OCC` [MTR-0252, 5-Ethoxy-6-morpholin-4-yl-2-(4-{3-[3-(2,2,2-trifluoro-acetylamino)-phenyl]-ureido}-phenyl)-pyrimidine-4-carboxylic acid ethyl ester], the inhibition at 10 µM is reported as 82%.
`CSc1c(Cl)nc(-c2ccc(NC(=O)Nc3ccc4c(c3)OCO4)cc2)nc1N1CCOCC1` [MTR-0256, 1-Benzo[1,3]dioxol-5-yl-3-[4-(4-chloro-5-methylsulfanyl-6-morpholin-4-yl-pyrimidin-2-yl)-phenyl]-urea] was tested, and the inhibition at 10 µM was 90%.
`CCOC(=O)c1ccc(NC(=O)Nc2ccc(-c3ncc(SC)c(N4CCOCC4)n3)cc2)cc1` [MTR-0264, 4-{3-[4-(5-Methylsulfanyl-4-morpholin-4-yl-pyrimidin-2-yl)-phenyl]-ureido}-benzoic acid ethyl ester] showed an inhibition at 10 µM of 86%.
`CCOC(=O)c1nc(-c2ccc(NC(=O)Nc3ccc(N4CCN(C)CC4)nc3)cc2)nc(N2CCOCC2)c1OCC` [MTR-0275, 5-Ethoxy-2-(4-{3-[6-(4-methyl-piperazin-1-yl)-pyridin-3-yl]-ureido}-phenyl)-6-morpholin-4-yl-pyrimidine-4-carboxylic acid ethyl ester] showed an inhibition at 10 µM of 97%.
In the case of `CCOC(=O)c1nc(-c2ccc(NC(=O)Nc3ccc(N4CCOCC4)nc3)cc2)nc(N2CCOCC2)c1OCC` [MTR-0276, 5-Ethoxy-6-morpholin-4-yl-2-{4-[3-(6-morpholin-4-yl-pyridin-3-yl)-ureido]-phenyl}-pyrimidine-4-carboxylic acid ethyl ester], the inhibition at 10 µM is reported as 82%.
For `CSc1cnc(-c2ccc(NC(N)=O)cc2)nc1N1CCOCC1` [MTR-0286, [4-(5-Methylsulfanyl-4-morpholin-4-yl-pyrimidin-2-yl)-phenyl]-urea], the inhibition at 10 µM was 93%.
`CSc1cnc(-c2ccc(Nc3nc4ccccc4[nH]3)cc2)nc1N1CCOCC1` [MTR-0289, (1H-Benzoimidazol-2-yl)-[4-(5-methylsulfanyl-4-morpholin-4-yl-pyrimidin-2-yl)-phenyl]-amine] gave an inhibition at 10 µM of 91%.
With `CSc1c(Cl)nc(-c2ccc(NC(=O)Nc3ccc(Br)nc3)cc2)nc1N1CCOCC1` [MTR-0291, 1-(6-Bromo-pyridin-3-yl)-3-[4-(4-chloro-5-methylsulfanyl-6-morpholin-4-yl-pyrimidin-2-yl)-phenyl]-urea] the inhibition at 10 µM was 89%.
`CSc1c(Cl)nc(-c2ccc(NC(=S)Nc3ccc(C(=O)O)cc3)cc2)nc1N1CCOCC1` [MTR-0293, 4-{3-[4-(4-Chloro-5-methylsulfanyl-6-morpholin-4-yl-pyrimidin-2-yl)-phenyl]-thioureido}-benzoic acid] showed an inhibition at 10 µM of 83%.
`CCOC(=O)c1nc(-c2ccc(NC(=O)Nc3cccc4[nH]ncc34)cc2)nc(N2CCOCC2)c1OCC` [MTR-0297, 5-Ethoxy-2-{4-[3-(1H-indazol-4-yl)-ureido]-phenyl}-6-morpholin-4-yl-pyrimidine-4-carboxylic acid ethyl ester] was tested, and the inhibition at 10 µM was 83%.
Work on `CSc1c(Cl)nc(-c2ccc(NC(=S)Nc3ccc(N4CCOCC4=O)cc3)cc2)nc1N1CCOCC1` [MTR-0304, 1-[4-(4-Chloro-5-methylsulfanyl-6-morpholin-4-yl-pyrimidin-2-yl)-phenyl]-3-[4-(3-oxo-morpholin-4-yl)-phenyl]-thiourea] yielded an inhibition at 10 µM of 90%.
For `CSc1c(Cl)nc(-c2ccc(Nc3nc4ccccc4[nH]3)cc2)nc1N1CCOCC1` [MTR-0305, (1H-Benzoimidazol-2-yl)-[4-(4-chloro-5-methylsulfanyl-6-morpholin-4-yl-pyrimidin-2-yl)-phenyl]-amine], the inhibition at 10 µM was 82%.
With `CSc1c(Cl)nc(-c2ccc(NC(=O)NC(C)C)cc2)nc1N1CCOCC1` [MTR-0306, 1-[4-(4-Chloro-5-methylsulfanyl-6-morpholin-4-yl-pyrimidin-2-yl)-phenyl]-3-isopropyl-urea] the inhibition at 10 µM was 90%.
In the case of `CSc1c(Cl)nc(-c2ccc(NC(=O)O)cc2)nc1N1CCOCC1` [MTR-0307, [4-(4-Chloro-5-methylsulfanyl-6-morpholin-4-yl-pyrimidin-2-yl)-phenyl]-carbamic acid], the inhibition at 10 µM is reported as 82%.
In the case of `COc1cnc(-c2ccc(Nc3nc4ccccc4[nH]3)cc2)nc1N1CCOCC1` [MTR-0310, (1H-Benzoimidazol-2-yl)-[4-(5-methoxy-4-morpholin-4-yl-pyrimidin-2-yl)-phenyl]-amine], the inhibition at 10 µM is reported as 86%.
`COc1cnc(-c2ccc(NC(=O)Nc3ccc(OCCN(C)C)cc3)cc2)nc1N1CCOCC1` [MTR-0312, 1-[4-(2-Dimethylamino-ethoxy)-phenyl]-3-[4-(5-methoxy-4-morpholin-4-yl-pyrimidin-2-yl)-phenyl]-urea] showed an inhibition at 10 µM of 94%.
Work on `CSc1cnc(-c2ccc(NC(=O)Nc3ccc4c(c3)OCO4)cc2)nc1N1CCOCC1` [MTR-0317, 1-Benzo[1,3]dioxol-5-yl-3-[4-(5-methylsulfanyl-4-morpholin-4-yl-pyrimidin-2-yl)-phenyl]-urea] yielded an inhibition at 10 µM of 93%.
Compound `CSc1cnc(-c2ccc(NC(=O)Nc3ccc(N4CCN(C)CC4)cn3)cc2)nc1N1CCOCC1` [MTR-0318, 1-[5-(4-Methyl-piperazin-1-yl)-pyridin-2-yl]-3-[4-(5-methylsulfanyl-4-morpholin-4-yl-pyrimidin-2-yl)-phenyl]-urea] has an inhibition at 10 µM of 91%.
Compound `CSc1cnc(-c2ccc(NC(=S)Nc3ccc(N4CCOCC4=O)cc3)cc2)nc1N1CCOCC1` [MTR-0319, 1-[4-(5-Methylsulfanyl-4-morpholin-4-yl-pyrimidin-2-yl)-phenyl]-3-[4-(3-oxo-morpholin-4-yl)-phenyl]-thiourea] has an inhibition at 10 µM of 84%.
`CCOc1cnc(-c2ccc(NC(=O)Nc3ccc(N4CCSCC4)cc3)cc2)nc1N1CCOCC1` [MTR-0324, 1-[4-(5-Ethoxy-4-morpholin-4-yl-pyrimidin-2-yl)-phenyl]-3-(4-thiomorpholin-4-yl-phenyl)-urea] showed an inhibition at 10 µM of 81%.
For `CSc1c(Cl)nc(-c2ccc(NC(=O)Nc3ccc(N4CCOCC4)cn3)cc2)nc1N1CCOCC1` [MTR-0328, 1-[4-(4-Chloro-5-methylsulfanyl-6-morpholin-4-yl-pyrimidin-2-yl)-phenyl]-3-(5-morpholin-4-yl-pyridin-2-yl)-urea], the inhibition at 10 µM was 85%.
`CSc1c(Cl)nc(-c2ccc(NC(=O)Nc3ccc(N)cc3)cc2)nc1N1CCOCC1` [MTR-0329, 1-(4-Amino-phenyl)-3-[4-(4-chloro-5-methylsulfanyl-6-morpholin-4-yl-pyrimidin-2-yl)-phenyl]-urea] showed an inhibition at 10 µM of 97%.
`COc1cnc(-c2ccc(NC(=O)Nc3ccc(N4CCN(C)CC4)cn3)cc2)nc1N1CCOCC1` [MTR-0334, 1-[4-(5-Methoxy-4-morpholin-4-yl-pyrimidin-2-yl)-phenyl]-3-[5-(4-methyl-piperazin-1-yl)-pyridin-2-yl]-urea] gave an inhibition at 10 µM of 93%.
With `COc1cnc(-c2ccc(NC(=S)Nc3ccc(N4CCOCC4=O)cc3)cc2)nc1N1CCOCC1` [MTR-0335, 1-[4-(5-Methoxy-4-morpholin-4-yl-pyrimidin-2-yl)-phenyl]-3-[4-(3-oxo-morpholin-4-yl)-phenyl]-thiourea] the inhibition at 10 µM was 89%.
`COc1cnc(-c2ccc(NC(N)=O)cc2)nc1N1CCOCC1` [MTR-0336, [4-(5-Methoxy-4-morpholin-4-yl-pyrimidin-2-yl)-phenyl]-urea] was tested, and the inhibition at 10 µM was 89%.
In the case of `COc1cnc(-c2ccc(NC(=O)Nc3ccc(N4CCN(C)CC4)nc3)cc2)nc1N1CCOCC1` [MTR-0338, 1-[4-(5-Methoxy-4-morpholin-4-yl-pyrimidin-2-yl)-phenyl]-3-[6-(4-methyl-piperazin-1-yl)-pyridin-3-yl]-urea], the inhibition at 10 µM is reported as 94%.
With `CSc1cnc(-c2ccc(NC(=O)NC(C)C)cc2)nc1N1CCOCC1` [MTR-0341, 1-Isopropyl-3-[4-(5-methylsulfanyl-4-morpholin-4-yl-pyrimidin-2-yl)-phenyl]-urea] the inhibition at 10 µM was 83%.
Work on `CSc1cnc(-c2ccc(NC(=O)Nc3ccc(OCCN(C)C)cc3)cc2)nc1N1CCOCC1` [MTR-0343, 1-[4-(2-Dimethylamino-ethoxy)-phenyl]-3-[4-(5-methylsulfanyl-4-morpholin-4-yl-pyrimidin-2-yl)-phenyl]-urea] yielded an inhibition at 10 µM of 92%.
Work on `CCOC(=O)c1nc(-c2ccc(NC(=O)Nc3ccc(C(N)=O)cc3)c(F)c2)nc(N2CCOCC2)c1OCC` [MTR-0344, 2-{4-[3-(4-Carbamoyl-phenyl)-ureido]-3-fluoro-phenyl}-5-ethoxy-6-morpholin-4-yl-pyrimidine-4-carboxylic acid ethyl ester] yielded an inhibition at 10 µM of 92%.
Compound `CCOC(=O)c1nc(-c2ccc(NC(=O)Nc3ccc(C(N)=O)cc3)cc2F)nc(N2CCOCC2)c1OCC` [MTR-0345, 2-{4-[3-(4-Carbamoyl-phenyl)-ureido]-2-fluoro-phenyl}-5-ethoxy-6-morpholin-4-yl-pyrimidine-4-carboxylic acid ethyl ester] has an inhibition at 10 µM of 95%.
